Measurements: publication PMC5787524, “Discovery of a FLT3 inhibitor LDD1937 as an anti-leukemic agent for acute myeloid leukemia” (Oncotarget, 2017)
“And” between values parts separate entries of the source, which are not always exact repeats. Equal values may be shown once.

Experiments:
FLT3 = target: T1, FLT3 (Homo sapiens, UniProt P36888); assay: In vitro FLT3 kinase assay (HTRF); format: biochemical; details: recombinant FLT3, HTRF; read-out: IC50 FLT3 kinase activity
T1 construct: Recombinant proteins containing the FLT3 kinase domain were purchased from Carna biosciences (Japan); purchased Carna biosciences (Japan)
T1 sequence (P36888 610-943 limits assumed): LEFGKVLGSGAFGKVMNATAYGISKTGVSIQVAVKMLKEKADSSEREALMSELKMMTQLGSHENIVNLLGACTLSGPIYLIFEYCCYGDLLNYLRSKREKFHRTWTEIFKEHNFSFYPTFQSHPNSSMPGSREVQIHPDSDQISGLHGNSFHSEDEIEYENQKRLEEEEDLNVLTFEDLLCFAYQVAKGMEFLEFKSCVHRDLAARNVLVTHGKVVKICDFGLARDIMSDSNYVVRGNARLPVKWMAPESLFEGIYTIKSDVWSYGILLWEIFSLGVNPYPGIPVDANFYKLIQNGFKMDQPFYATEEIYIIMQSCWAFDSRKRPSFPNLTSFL
Procedure: The inhibition of the FLT3 kinase activity was measured with homogeneous, time-resolved fluorescence (HTRF) assays. Recombinant proteins containing the FLT3 kinase domain were purchased from Carna biosciences (Japan). Optimal enzyme, ATP, and substrate concentrations were established with the HTRF KinEASE kit (Cisbio, France) according to the manufacturer’s instructions. The FLT3 enzymes were mixed with serially diluted compounds and peptide substrates in a kinase reaction buffer (50 mM HEPES (pH 7.0), 500 μM ATP, 0.1 mM sodium orthovanadate, 5 mM MgCl2, 1 mM DTT, 0.01% bovine serum albumin (BSA), and 0.02% NaN3). After the addition of the reagents for detection, the TR-FRET signal was measured with a Victor multilabel reader (Perkin Elmer, Waltham, MA, USA). […] JAK2, JAK3, cMET, and RET in vitro kinase assays were also carried out using the HTRF assay kit.

MV-4-11 cells = assay: Cell viability / growth inhibition (EZ-Cytox), MV-4-11; format: cell-based, human; details: 72 h; called IC50 in supplementary text
Procedure: The cultured cells were incubated at 37°C with 5% CO2. Cell viability was assessed with a tetrazolium-based assay using the EZ-Cytox Cell Viability Assay kit (DaeilLab, Korea). Briefly, 2,000 ∼ 15,000 cells were plated in 96-well flat bottom plates in 100 µl of medium. The next day, the cells were treated with compounds along with dimethyl sulfoxide (DMSO, Fisher, Waltham, MA, USA) as a negative control. […] After incubation, the optical density (OD) was measured at a wavelength of 450 nm with a Victor multilabel reader (Perkin Elmer, Waltham, MA, USA).

[1] = Pharmacokinetics in mice (intravenous and oral); format: in vivo, ICR mice; details: for AUC1940/AUC1937 / AUC / Ae0–24 h / Cmax / GI24 h / Terminal half-life / Tmax: mice
Procedure: The protocols for the animal studies were approved by the Institute of Laboratory Animal Resources of Dongguk University, Seoul, South Korea (IACUC-2015-055-1). Five-week-old male Imprinting Control Region (ICR) mice were purchased from the Charles River Company Korea (Orient, Seoul, South Korea). Upon arrival, the animals were randomized and housed four per cage under strictly controlled environmental conditions (22-25°C and 48-52% relative humidity) with a 12 h light/dark cycle at an intensity of 150 to 300 Lux. All mice were provided food and water ad libitum and were then maintained during this study. In the intravenous study of LDD1937, 10 mg/kg of LDD1937 (dissolved in distilled water at a concentration of 2 mg/ml) were intravenously injected into the mice through the tail vein. A blood sample of approximately 0.12 ml was collected by cardiac puncture. Additionally, in the oral study of LDD1937, 10 mg/kg of LDD1937 (dissolved in the same solution used in the intravenous study) were orally administered to the mice. The analysis of LDD1937 and LDD1940, a metabolite of LDD1937, in biological samples was done with LC-MS/MS using the Waters UPLC-XEVO TQ system (Waters Corporation, Milford, CT, USA). […]1940, and carbamazepine (an internal standard, IS) were ionized in the multiple reaction monitoring mode with an ESI interface for positive ions ([M+H]^+). The turbo ion-spray interface was operated at an ion capillary voltage of 3.0 kV with a desolvation gas flow of 650 l/h and a cone gas flow of 10 l/h at 350°C. […] Separation was done on a reverse-phase C18 column (BEH, […]; Waters, Ireland) with a mobile phase, distilled water containing 0.1% formic acid and acetonitrile, at 30°C. After measuring the concentrations of the LDD1937 and LDD1940, standard methods were used to calculate the pharmacokinetic parameters using a non-compartmental analysis (WinNonlin 2.1; […] Corp., Mountain View, CA, USA).

[2] = tested on: FLT3, VEGFR1/2, PDGFRβ, and PKCα/β/γ; set-up: method as in PMID 10888033; details: read-out: IC50s against kinases including FLT3, VEGFR1/2, PDGFRβ, and PKCα/β/γ; cited from earlier work
[3] = metabolite LDD1940 after 10 mg/kg LDD1937 intravenous
[4] = metabolite LDD1940 after 10 mg/kg LDD1937 oral

Row | IC50 (FLT3) | SMILES | GI50 (MV-4-11 cells) [nM] | also measured
1 | 19.2 ± 1.88 nM | COC(=O)c1ccc2c(c1)/C(=C1/Nc3ccccc3/C1=N\OCCBr)C(=O)N2 [Compound 2] | 51 ± 11 | –
2 | 3.3 ± 0.11 nM | NCCO/N=C1/C(=C2/C(=O)Nc3ccc(C(=O)O)cc32)Nc2ccccc21 [Compound 9] | 150 ± 33 | –
3 | 3.3 ± 0.6 nM | CN1CCN(CCO/N=C2/C(=C3/C(=O)Nc4ccc(C(=O)O)cc43)Nc3ccccc32)CC1 [Compound 11] | 176 ± 51 | –
4 | 7.55 ± 1.01 nM | O=C1Nc2ccc(C(=O)O)cc2/C1=C1/Nc2ccccc2/C1=N\OCCN1CCOCC1 [Compound 12] | > 1000 | –
5 | 2.45 nM and 2.5 nM | Cl.Cl.O=C1Nc2ccc(C(=O)O)cc2/C1=C1/Nc2ccccc2/C1=N\OCCN1CCNCC1 [LDD1940] | 40 | AUC1940/AUC1937 ([1]; after 10 mg/kg LDD1937 intravenous): 42.7 ± 9.44%; AUC1940/AUC1937 ([1]; after 10 mg/kg LDD1937 oral): 65.3 ± 16.8%; Tmax of LDD1940 ([1]; after intravenous and oral administration of LDD1937, mice (span over both routes)): 1∼15 min; AUC [1, 3]: 54.6 ± 0.592 µg·min/mL; Ae0–24 h [1, 3]: 0.868 ± 0.0333 % of dose; Cmax [1, 3]: 1450 ± 694 µg/mL; GI24 h [1, 3]: 0.719 ± 0.0556 % of dose; Terminal half-life [1, 3]: 2.37 ± 2.02 h; Tmax [1, 3]: 1 (1–1) min; AUC [1, 4]: 1.84 ± 0.0741 µg·min/mL; Ae0–24 h [1, 4]: 0.0787 ± 0.0791 % of dose; Cmax [1, 4]: 8.17 ± 2.44 µg/mL; GI24 h [1, 4]: 0.792 ± 1.09 % of dose; Terminal half-life [1, 4]: 12.4 ± 2.15 h; Tmax [1, 4]: 15 (15–120) min

Continued, compound first:

Row | SMILES | IC50 (FLT3) | GI50 (MV-4-11 cells) [nM] | also measured
6 | COC(=O)c1ccc2c(c1)/C(=C1/Nc3ccccc3/C1=N\OCCN)C(=O)N2 [Compound 3] | 4.5 ± 0.75 nM | 15 ± 3 | –
7 | COC(=O)c1ccc2c(c1)/C(=C1/Nc3ccccc3/C1=N\OCCN1CCN(C)CC1)C(=O)N2 [Compound 5] | 10.8 ± 2.02 nM | 11 ± 1.5 | –
8 | COC(=O)c1ccc2c(c1)/C(=C1/Nc3ccccc3/C1=N\OCCN1CCOCC1)C(=O)N2 [Compound 6] | 253 ± 81.4 nM | 53 ± 11 | –
9 | O=C1Nc2ccc(C(=O)O)cc2/C1=C1/Nc2ccccc2/C1=N\O [Compound 7] | – | > 1000 | GI50 MV-4-11 (MV-4-11 cells): lack of an anti-proliferative activity
10 | O=C1Nc2ccc(C(=O)O)cc2/C1=C1/Nc2ccccc2/C1=N\OCCBr [Compound 8] | 12.9 ± 0.97 nM | 340 ± 81 | –
